Data: patent US9073855B2, “BCL-2 selective apoptosis-inducing agents for the treatment of cancer and immune diseases” (AbbVie Inc., priority 2008, dated 2015)

How the values were obtained:
GST-Bcl-2 = GST-Bcl-2 (Homo sapiens, UniProt P10415); assay: TR-FRET binding assay, GST-Bcl-2 with F-Bak peptide probe; details: for Ki: TR-FRET Binding Affinity, GST-Bcl-2, F-Bak peptide probe
In short: (§1)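 Competitive TR-FRET: GST-fusion protein, fluorescent Bak peptide probe and Tb-labelled anti-GST antibody incubated with compound dilution series (starting 50 μM as 2× stock, 10% DMSO) for 3 h at RT. Excitation 340/35 nm; Ki derived via Wang's exact competitive-binding equation.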

GST-Bcl-XL = GST-Bcl-XL (Homo sapiens, UniProt Q07817); assay: TR-FRET binding assay, GST-Bcl-XL with F-Bak peptide probe; details: TR-FRET Binding Affinity, GST-Bcl-XL, F-Bak peptide probe
Chain of GST-Bcl-XL (Q07817 whole entry): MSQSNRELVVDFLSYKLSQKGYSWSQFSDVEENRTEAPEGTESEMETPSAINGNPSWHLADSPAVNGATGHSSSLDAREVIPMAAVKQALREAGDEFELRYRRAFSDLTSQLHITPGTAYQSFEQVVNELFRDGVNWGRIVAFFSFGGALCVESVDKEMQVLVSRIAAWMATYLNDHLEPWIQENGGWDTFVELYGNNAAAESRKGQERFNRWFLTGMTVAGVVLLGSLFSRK
In short: as §1

FL5.12/Bcl-2 cells = assay: FL5.12/Bcl-2 cell viability assay under IL-3 withdrawal (CellTitre Glo); assay type: cell-based, murine; details: Mus musculus, IL-3 withdrawn 48 hrs, then 24 hrs with compound
In short: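 Bcl-2-overexpressing murine FL5.12 transfectants underwent IL-3 removal for 48 hrs before a 24 hr compound treatment. Cell viability was quantified with CellTitre Glo.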

Chain of GST-Bcl-2 (P10415 whole entry, the tested form may be a part): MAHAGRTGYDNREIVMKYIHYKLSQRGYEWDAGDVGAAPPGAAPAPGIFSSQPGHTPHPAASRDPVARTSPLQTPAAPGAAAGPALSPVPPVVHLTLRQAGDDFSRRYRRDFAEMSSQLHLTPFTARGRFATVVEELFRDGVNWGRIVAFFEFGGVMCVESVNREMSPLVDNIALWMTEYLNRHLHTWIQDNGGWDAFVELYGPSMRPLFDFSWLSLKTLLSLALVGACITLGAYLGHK

SMILES	Ki (GST-Bcl-2) [nM]	Ki (GST-Bcl-XL) [nM]	EC50 (FL5.12/Bcl-2 cells) [nM]	Binding selectivity ratio (Bcl-XL Ki/Bcl-2 Ki) (GST-Bcl-2; ratio of TR-FRET Ki values, Bcl-XL over Bcl-2)
CC1(C)CCC(CN2CCN(c3ccc(C(=O)NS(=O)(=O)c4ccc(NCC5(N)CCOCC5)c([N+](=O)[O-])c4)c(Oc4cccc5[nH]ccc45)c3)CC2)=C(c2ccc(Cl)cc2)C1 [Example 176, N-[(4-{[(4-aminotetrahydro-2H-pyran-4-yl)methyl]amino}-3-nitrophenyl)sulfonyl]-4-(4-{[2-(4-chlorophenyl)-4,4-dimethylcyclohex-1-en-1-yl]methyl}piperazin-1-yl)-2-(1H-indol-4-yloxy)benzamide]	0.18	32	58.5	–
CC1(C)CCC(CN2CCN(c3ccc(C(=O)NS(=O)(=O)c4cnc(OCC5(F)CCOCC5)c(Cl)c4)c(Oc4cccc5[nH]ncc45)c3)CC2)=C(c2ccc(Cl)cc2)C1 [Example 404, N-({5-chloro-6-[(4-fluorotetrahydro-2H-pyran-4-yl)methoxy]pyridin-3-yl}sulfonyl)-4-(4-{[2-(4-chlorophenyl)-4,4-dimethylcyclohex-1-en-1-yl]methyl}piperazin-1-yl)-2-(1H-indazol-4-yloxy)benzamide]	0.012	30.3	2.34	2423.5
CC1(C)CCC(CN2CCN(c3ccc(C(=O)NS(=O)(=O)c4ccc(NCC5CCS(=O)(=O)C5)c([N+](=O)[O-])c4)c(Oc4ccc5[nH]ccc5c4)c3)CC2)=C(c2ccc(Cl)cc2)C1 (stereo not shown) [Example 275, 4-(4-{[2-(4-chlorophenyl)-4,4-dimethylcyclohex-1-en-1-yl]methyl}piperazin-1-yl)-N-[(4-{[(1,1-dioxidotetrahydrothien-3-yl)methyl]amino}-3-nitrophenyl)sulfonyl]-2-(1H-indol-5-yloxy)benzamide]	0.097	> 660	38	–
CC(C)(C)c1ccc(CN2CCN(c3ccc(C(=O)NS(=O)(=O)c4ccc(NCC5CCOCC5)c([N+](=O)[O-])c4)c(Oc4ccc5[nH]ccc5c4)c3)CC2)c(-c2ccc(Cl)cc2)c1 [Example 341, 4-{4-[(5-tert-butyl-4′-chloro-1,1′-biphenyl-2-yl)methyl]piperazin-1-yl}-2-(1H-indol-5-yloxy)-N-({3-nitro-4-[(tetrahydro-2H-pyran-4-ylmethyl)amino]phenyl}sulfonyl)benzamide]	13	> 660	> 500	–
COCCOCCSc1ccc(S(=O)(=O)NC(=O)c2ccc(N3CCN(CC4=C(c5ccc(Cl)cc5)CC(C)(C)CC4)CC3)cc2Oc2cccc3[nH]ccc23)cc1[N+](=O)[O-] [Example 381, 4-(4-{[2-(4-chlorophenyl)-4,4-dimethylcyclohex-1-en-1-yl]methyl}piperazin-1-yl)-2-(1H-indol-4-yloxy)-N-[(4-{[2-(2-methoxyethoxy)ethyl]thio}-3-nitrophenyl)sulfonyl]benzamide]	0.054	24.2	71.8	–
CC1(C)CCC(CN2CCN(c3ccc(C(=O)NS(=O)(=O)c4ccc(NC5CCCCC5N)c([N+](=O)[O-])c4)c(Oc4ccc5[nH]ccc5c4)c3)CC2)=C(c2ccc(Cl)cc2)C1 (stereo not shown) [Example 208, N-({4-[(2-aminocyclohexyl)amino]-3-nitrophenyl}sulfonyl)-4-(4-{[2-(4-chlorophenyl)-4,4-dimethylcyclohex-1-en-1-yl]methyl}piperazin-1-yl)-2-(1H-indol-5-yloxy)benzamide]	0.589	> 660	264	–
CC1(C)CC(c2ccc(Cl)cc2)=C(CN2CCN(c3ccc(C(=O)NS(=O)(=O)c4ccc(NCC5CCOCC5)c([N+](=O)[O-])c4)c(Oc4ccc5[nH]ccc5c4)c3)CC2)CO1 [Example 182, 4-(4-{[4-(4-chlorophenyl)-6,6-dimethyl-5,6-dihydro-2H-pyran-3-yl]methyl}piperazin-1-yl)-2-(1H-indol-5-yloxy)-N-({3-nitro-4-[(tetrahydro-2H-pyran-4-ylmethyl)amino]phenyl}sulfonyl)benzamide]	0.087	> 660	12.4	–
CC1(C)CCC(CN2CCN(c3ccc(C(=O)NS(=O)(=O)c4ccc(NCCCN5CCOCC5)c(S(=O)(=O)C(F)(F)F)c4)c(Oc4cccc5[nH]ccc45)c3)CC2)=C(c2ccc(Cl)cc2)C1 [Example 349, 4-(4-{[2-(4-chlorophenyl)-4,4-dimethylcyclohex-1-en-1-yl]methyl}piperazin-1-yl)-2-(1H-indol-4-yloxy)-N-({4-[(3-morpholin-4-ylpropyl)amino]-3-[(trifluoromethyl)sulfonyl]phenyl}sulfonyl)benzamide]	0.467	24.2	146	–
COC1CCN(c2ccc(S(=O)(=O)NC(=O)c3ccc(N4CCN(CC5=C(c6ccc(Cl)cc6)CC(C)(C)CC5)CC4)cc3Oc3ccc4[nH]ccc4c3)cc2[N+](=O)[O-])CC1 [Example 271, 4-(4-{[2-(4-chlorophenyl)-4,4-dimethylcyclohex-1-en-1-yl]methyl}piperazin-1-yl)-2-(1H-indol-5-yloxy)-N-{[4-(4-methoxypiperidin-1-yl)-3-nitrophenyl]sulfonyl}benzamide]	6.16	> 660	> 500	–
CC1(C)CCC(CN2CCN(c3ccc(C(=O)NS(=O)(=O)c4ccc(S(C)(=O)=O)cc4)c(Oc4cccc5[nH]ccc45)c3)CC2)=C(c2ccc(Cl)cc2)C1 [Example 383, 4-(4-{[2-(4-chlorophenyl)-4,4-dimethylcyclohex-1-en-1-yl]methyl}piperazin-1-yl)-2-(1H-indol-4-yloxy)-N-{[4-(methylsulfonyl)phenyl]sulfonyl}benzamide]	2.17	> 660	> 500	–
CC1(C)CCC(CN2CCN(c3ccc(C(=O)NS(=O)(=O)c4ccc(NCCCN5CCS(=O)(=O)CC5)c([N+](=O)[O-])c4)c(Oc4ccc5[nH]ccc5c4)c3)CC2)=C(c2ccc(Cl)cc2)C1 [Example 266, 4-(4-{[2-(4-chlorophenyl)-4,4-dimethylcyclohex-1-en-1-yl]methyl}piperazin-1-yl)-N-[(4-{[3-(1,1-dioxidothiomorpholin-4-yl)propyl]amino}-3-nitrophenyl)sulfonyl]-2-(1H-indol-5-yloxy)benzamide]	0.183	> 660	11.5	–
CC1(C)CCC(CN2CCN(c3ccc(C(=O)NS(=O)(=O)c4ccc(NCCCN5CCCC5=O)c([N+](=O)[O-])c4)c(Oc4ccc5[nH]ccc5c4)c3)CC2)=C(c2ccc(Cl)cc2)C1 [Example 374, 4-(4-{[2-(4-chlorophenyl)-4,4-dimethylcyclohex-1-en-1-yl]methyl}piperazin-1-yl)-2-(1H-indol-5-yloxy)-N-[(3-nitro-4-{[3-(2-oxopyrrolidin-1-yl)propyl]amino}phenyl)sulfonyl]benzamide]	2.27	> 660	> 500	–
CC1(C)CCC(CN2CCN(c3ccc(C(=O)NS(=O)(=O)c4ccc(NCc5cncs5)c([N+](=O)[O-])c4)c(Oc4ccc5[nH]ccc5c4)c3)CC2)=C(c2ccc(Cl)cc2)C1 [Example 288, 4-(4-{[2-(4-chlorophenyl)-4,4-dimethylcyclohex-1-en-1-yl]methyl}piperazin-1-yl)-2-(1H-indol-5-yloxy)-N-({3-nitro-4-[(1,3-thiazol-5-ylmethyl)amino]phenyl}sulfonyl)benzamide]	0.177	> 660	64.3	–
